Measurements taken from patent US20150072988A1, “USE OF N-(4-((3-(2-AMINO-4-PYRIMIDINYL)-2-PYRIDINYL)OXY)PHENYL)-4-(4-METHYL-2-THIENYL)-1-PHTHALAZINAMINE IN COMBINATION WITH HISTONE DEACETYLASE INHIBITORS FOR TREATMENT OF CANCER” (THE JOHNS HOPKINS UNIVERSITY, priority 2012, published 2015).

These compounds were tested on phospho-histone H3 (assay: Immunoblotting of phospho-histone H3 in prostate cells). Settings: single agent treatment.
Assay type: cell-based
Method: Prostate cancer cell lines (DU-145, LNCaP, PC3) were obtained from ATCC. Cells were grown in RPMI-1640 (Invitrogen) with 10% Fetal Bovine Serum (FBS) (Gemini) and maintained in a […] humidified incubator supplemented with 5% CO2. Sodium salt of VPA (Sigma-Aldrich) was prepared in RPMI at a 1M stock on the day of treatment of the cells. Vorinostat (SAHA) (AtonPharma) and AMG 900 (Amgen) were maintained in 10 mM DMSO stock solutions at −20° C. and diluted in RPMI upon use. For combination studies, compounds were administered concomitantly.
Western blotting was performed as described previously. Kachhap S K, Rosmus N, et al. “Downregulation of homologous recombination repair genes by HDAC inhibition in prostate cancer is mediated through the E2F1 transcription factor”, PLoS One 2010;5:e11208. Loading volumes equalized to 20 μg of total protein were used. Primary antibodies were diluted 1:1000 in blocking solution with the exceptions of vinculin and phosphorylated aurora A-C, which were diluted 1:4000 and 1:500, respectively. Conjugated secondary antibodies were diluted 1:4000 in blocking solution. For blocking solution 5% milk in TBST (100 mM Tris-HCl ph 7.4, 0.1% Tween20, 150 mM NaCl in H2O) was used for p21, cyclin B1, vinculin, cleaved PARP and all secondary antibodies; 5% BSA in TBST was used for the primary antibodies phosphorylated aurora, and phosphorylated and total H3. Blots were developed on film and scanned into a computer at 300 dots per inch (dpi). Densitometric analyses were performed using ImageJ (Research Services Branch, National Institute of Mental Health).

Question: For Cc1csc(-c2nnc(Nc3ccc(Oc4ncccc4-c4ccnc(N)n4)cc3)c3ccccc23)c1 [AMG 900, N-(4-((3-(2-amino-4-pyrimidinyl)-2-pyridinyl)oxy)phenyl)-4-(4-methyl-2-thienyl)-1-phthalazinamine], which “expression of phospho-histone H3 (pH3)” value is on record?
Answer: decreased

Question: For CCCC(CCC)C(=O)O [valproic acid], which “expression of phospho-histone H3 (pH3)” value is on record?
Answer: decreased

Question: With O=C(CCCCCCC(=O)Nc1ccccc1)NO [vorinostat] as the compound, how does the “expression of phospho-histone H3 (pH3)” value read?
Answer: decreased
